Values after ≈ are worked out from the molar mass of the structure shown. Like-named read-outs stand apart in the source and are kept apart here.
How the values were obtained:
Type in all cases: cell-based
[1] = system: EcR1: Penicillinase-Producing Escherichia coli without Associated Resistance; assay: Antibiogram by the disk diffusion technique; details: Table A1
Procedure: (§1) 5.1 EcR1: Penicillinase-Producing Escherichia coli without Associated Resistance The bacterial and antibiogramidentification is carried out by the VITEK 2 system (bioMérieux) and by the disk diffusion technique.

[2] = system: SaR1: Meticillin-Resistant Staphylococcus aureus without Associated Resistance; assay: Antibiogram, MIC by the VITEK 2 system; details: SaR1
Procedure: (§2) The bacterial and antibiogramidentification is carried out by the VITEK 2 system (bioMérieux)

[3] = system: PaR3: Pseudomonas aeruginosa; assay: Antibiogram, MIC by the VITEK 2 system
Procedure: as §2

[4] = system: SaR1: Meticillin-Resistant Staphylococcus aureus without Associated Resistance; assay: Antibiogram, inhibition diameter (Table D1)
Procedure: as §2

[5] = system: EcR2: Cephalosporinase-Hyperproducing Strain of Escherichia coli; assay: Antibiogram by the disk diffusion technique
Procedure: The bacterial and antibiogramidentification is carried out by the VITEK 1 system (bioMérieux) and by the disk diffusion technique

[6] = system: SaR4: Meticillin-Resistant Staphylococcus aureus; assay: Antibiogram by the disk diffusion technique
Procedure: (§3) The bacterial and antibiogramidentification is carried out by the VITEK 2 system (bioMérieux) and by the disk diffusion technique

[7] = system: SaR3: Meticillin-Resistant Staphylococcus aureus; assay: Antibiogram by the disk diffusion technique
Procedure: as §3

[8] = system: PaR5: Pseudomonas aeruginosa; assay: Antibiogram by the disk diffusion technique
Procedure: as §3

[9] = system: PaR2: Pseudomonas aeruginosa
Procedure: as §3

[10] = system: EcR1: Penicillinase-Producing Escherichia coli without Associated Resistance; assay: Antibiogram, MIC by the VITEK 2 system; details: for MIC: Escherichia coli
Procedure: as §1

[11] = system: Escherichia coli, Staphylococcus aureus and Pseudomonas aeruginosa strains; assay: Chessboard technique, summary statements over all strains and combinations tested; details: strain not stated
Text: 1.3. Procedure: Chessboard Technique
The same procedure is followed for the Cx1. […] Thus 64 ATB/Cx1 combinations are obtained.
The FIC (Fractional Inhibitory Concentration Index) value is defined by the following formula: […]
When FIC≦0.5, there is a synergistic effect between antibiotic A and antibiotic B.
When 0.5<FIC≦1, there is an additive effect between antibiotic A and antibiotic B.
When 1<FIC≦4, there is an indifferent effect between antibiotic A and antibiotic B.
When FIC>4, there is an antagonistic effect between antibiotic A and antibiotic B.
For each strain and each antibiotic/Cx1 combination, the experiments were repeated a minimum of 3 times.

[12] = system: Pseudomonas aeruginosa strain PaR2; assay: microbe, parasite or virus in culture; details: Pseudomonas aeruginosa, antibiotic alone (second value of cell), read-out: MIC
Text: (§4) The MICs of the antibiotics were previously defined for each strain, by the method of microdilution in a liquid medium (CLSI (Clinical and Laboratory Standards Institute), 2003).

[13] = system: EcR3: ESBL-Producing Escherichia coli; assay: Antibiogram by the disk diffusion technique
Procedure: The bacterial and antibiogramidentification is carried out by the VITEK 2 system (bioMerieux) and by the disk diffusion technique

[14] = system: penicillinase-producing strain of Escherichia coli without associated resistance (EcR1); assay: MIC of the compounds used alone, microdilution in a liquid medium (CLSI); details: Escherichia coli, antibiotic alone (second value of cell), read-out: Initial MICs
Text: as §4

[15] = system: mucoid strain of Pseudomonas aeruginosa PaR5; assay: as above; details: Pseudomonas aeruginosa, antibiotic alone (second value of cell), read-out: MIC
Text: as §4

[16] = system: Pseudomonas aeruginosa strain ATCC 27853 (wild type); assay: as above; details: Pseudomonas aeruginosa, ATCC27853; antibiotic alone (second value of cell); P. aeruginosa ATCC 27853; read-out: MIC
Text: as §4

[17] = system: cephalosporinase-hyperproducing strain of Escherichia coli (EcR2); assay: as above; details: Escherichia coli, antibiotic alone (second value of cell), read-out: Initial MICs
Text: as §4

[18] = system: Pseudomonas aeruginosa strain PaR3; assay: as above; details: Pseudomonas aeruginosa, antibiotic alone (second value of cell), read-out: MIC
Text: as §4

[19] = system: Escherichia coli strain ATCC 25922 (wild type); assay: as above; details: Escherichia coli, ATCC25922; antibiotic alone (second value of cell); E. coli ATCC 25922; read-out: Initial MICs
Text: as §4

[20] = system: ESBL-producing strain of Escherichia coli, having an associated resistance to the aminoglycosides (EcR3); assay: as above; details: Escherichia coli, antibiotic alone (second value of cell), read-out: Initial MICs
Text: as §4

`NC[C@H]1O[C@H](O[C@H]2[C@H](O)[C@@H](O[C@H]3O[C@H](CO)[C@@H](O)[C@H](N)[C@H]3O)[C@H](N)C[C@@H]2N)[C@H](N)C[C@@H]1O` [Tobramycin] was tested, and the Diameter ([1]; EcR1, disk diffusion) was 19 mm, the Results ([1]; EcR1, interpretation of the diameter against Dmin Dmax) was “Susceptible” and the “CA-SFM Interpretation” value ([2]; Cc CA-SFM 2011) was “Susceptible”. The “CLSI Interpretation” value ([2]; Cc CLSI 2011) was “Susceptible”, the “EUCAST Interpretation” value ([2]; Cc EUCAST 2011) was “Susceptible” and the Results ([2]; Table D1, from MIC) was “Susceptible”. For the same compound, the “MIC mg/L” value ([2]; Table D2) was “≦1 mg/L”, the MIC ([2]; Staphylococcus aureus, Table D1, read-out: MIC) was no more than 1 µg/mL and the “CA-SFM Interpretation” value ([3]; Cc CA-SFM 2011) was “Resistant”. The “CLSI Interpretation” value ([3]; Cc CLSI 2011) was “Resistant”, the “EUCAST Interpretation” value ([3]; Cc EUCAST 2011) was “Resistant” and the MIC ([3]; Pseudomonas aeruginosa, Table H2, read-out: MIC) was no less than 16 µg/mL. For the same compound, the MIC ([3]; Table H1) was “≧16”, the Results ([3]; Table H1) was “Resistant” and the Diameter [4] was 22 mm. For the same compound, the Results ([4]; from diameter, against Dmin Dmax) was “Susceptible”, the Diameter ([5]; EcR2, disk diffusion, Table B1) was 10 and the Results ([5]; EcR2, rows that print a diameter, Table B1) was “Resistant”. For the same compound, the Diameter ([5]; EcR2, Table B2, diameters) was 10 mm, the “CA-SFM Interpretation” value ([5]; EcR2, from diameter, CA-SFM 2011) was “Resistant” and the “CLSI Interpretation” value ([5]; EcR2, from diameter, CLSI 2011) was “Resistant”. For the same compound, the “EUCAST Interpretation” value ([5]; EcR2, from diameter, EUCAST 2011) was “Resistant”, the Diameter ([6]; Table F1) was 6 and the Results ([6]; Table F1, rows with a diameter) was “Resistant”. For the same compound, the Diameter ([6]; Table F2, diameters) was 6 mm, the “CA-SFM Interpretation” value ([6]; from diameter, CA-SFM 2011) was “Resistant” and the “CLSI Interpretation” value ([6]; from diameter, CLSI 2011) was “Resistant”. The “EUCAST Interpretation” value ([6]; from diameter, EUCAST 2011) was “Resistant”, the “CA-SFM Interpretation” value ([7]; Cd CA-SFM 2011) was “Resistant” and the “CLSI Interpretation” value ([7]; Cd CLSI 2011) was “Resistant”. For the same compound, the “EUCAST Interpretation” value ([7]; Cd EUCAST 2011) was “Resistant”, the Diameter ([7]; Table E1) was 6 mm and the Results ([7]; Table E1, against Dmin Dmax) was “Resistant”. The diameter in mm ([7]; Table E2) was 6 mm, the Diameter ([8]; PaR5, Table I1) was 28 mm and the Results ([8]; PaR5, Table I1, against Dmin-Dmax) was “Susceptible”. For the same compound, the diameter in mm ([8]; disk diffusion inhibition diameter, strain PaR5) was 28 mm, the “CA-SFM Interpretation” value ([8]; disk diffusion, PaR5, versus critical diameter CA-SFM 2011) was “Susceptible” and the “CLSI Interpretation” value ([8]; disk diffusion, PaR5, versus critical diameter CLSI 2011) was “Susceptible”. For the same compound, the “EUCAST Interpretation” value ([8]; disk diffusion, PaR5, versus critical diameter EUCAST 2011, for ** antibiotics the disk load differs and the EUCAST interpretation is not applicable) was “Susceptible”, the “CA-SFM Interpretation” value ([9]; Cd CA-SFM 2011) was “Susceptible” and the “CLSI Interpretation” value ([9]; Cd CLSI 2011) was “Susceptible”. The “EUCAST Interpretation” value ([9]; Cd EUCAST 2011) was “Susceptible”, the Diameter ([9]; Table G1) was 24 mm and the Results ([9]; Table G1, against Dmin-Dmax) was “Susceptible”. The diameter in mm ([9]; Table G2) was 24 mm, the “CA-SFM Interpretation” value ([10]; EcR1, MIC against Cc CA-SFM 2011) was “Susceptible” and the “CLSI Interpretation” value ([10]; EcR1, MIC against Cc CLSI 2011) was “Susceptible”. The “EUCAST Interpretation” value ([10]; EcR1, MIC against Cc EUCAST 2011) was “Susceptible”, the Results ([10]; EcR1, interpretation of the MIC, Table A1) was “Susceptible” and the MIC ([10]; EcR1, Table A2, read-out: MIC mg/L (diameter in mm)) was no more than 1 mg/L. The MIC ([10]; EcR1, VITEK 2, Table A1, read-out: MIC) was no more than 1 mg/L, the “interaction between the antibiotic and Cx1” value [11] was “synergism” and the MIC [12] was 1 µg/mL (≈ 2.14 µM). For the same compound, the “CA-SFM Interpretation” value ([13]; Cd CA-SFM 2011) was “Resistant”, the “CLSI Interpretation” value ([13]; Cd CLSI 2011) was “Resistant” and the “EUCAST Interpretation” value ([13]; Cd EUCAST 2011) was “Resistant”. The Diameter ([13]; Table C1) was 6 mm, the Results ([13]; Table C1, against Dmin Dmax) was “Resistant” and the diameter in mm ([13]; Table C2) was 6 mm. The MIC [14] was 0.25 µg/mL, the MIC [15] was 1 µg/mL and the MIC [16] was 0.5 µg/mL. It also gave an MIC [17] of 4 µg/mL, an MIC [18] of 64 µg/mL and an MIC [19] of 0.25 µg/mL. For the same compound, the MIC [20] was 4 µg/mL.
